Measured values published in patent US20230271923A1, “IMAGING AND TARGETING PROGRAMMED DEATH LIGAND-1 (PD-LI) EXPRESSION” (The Johns Hopkins University, priority 2020, published 2023).
pIC50, pKd: −log10 of the molar value. Each block holds one molecule with its values, some of them ahead of it. Where a SMILES comes first, the peptide text is derived from it. Bridges are numbered along the chain shown (N, C = ends). [ ]: non-standard residue; d: D form. The star is where a group is joined. Trp(1-CH2COOH) = N[C@@H](Cc1cn(CC(=O)O)c2ccccc12)C(=O)O; X1 = O=C(O)CN1CCN(CC(=O)O)CCN(Cc2ccc(NC(=S)*)cc2)CC1; Hyp = O=C(O)[C@@H]1C[C@@H](O)CN1; NMeNle = CCCC[C@H](NC)C(=O)O; NMeA = CN[C@@H](C)C(=O)O

Tests used:
PD-L1 binding to PD-1 = PD-L1 binding to PD-1 (Homo sapiens, UniProt Q9NZQ7); experiment: competitive PD-1:PD-L1 inhibition assay (HTRF PD1/PD-L1 binding assay)
Protocol: To modify DK221 for radiolabeling, a bifunctional chelator, e.g., NCS-MP-NODA, was conjugated to the free lysine amine to generate DK222. The NODA chelator was used for radiofluorination to produce [^18F]DK222, as well as a non-radioactive analog [^19F]DK222. (FIG. 1A, FIG. 10 and FIG. 11). A competitive PD-1:PD-L1 inhibition assay was performed to characterize binding affinity of the peptide analogs to PD-L1. […] [^18F]Fluoride-radiolabeling of peptides and small molecules by aluminum fluoride (AlF) method is gaining attention due to the ease of synthesis and the potential to retain the hydrophilicity of the binding moiety. McBride et al., 2010; Kumar et al., 2018. The radiolabeled analog, [^18F]DK222 was synthesized by AlF method in good radiochemical yields (34.85±1.7%, n=62), in vitro stability, and moderate specific activity of 284±56 mCi/μmol (10.51±2.07 GBq/μmol, n=25). […] (FIG. 12, FIG. 13 and FIG. 14).

hPD-L1/CHO xenografts = settings: in vivo
LOX-IMVI tumors = experiment: aPD-L1 mAb dosing studies, accessible PD-L1 levels by [^18F]DK222 uptake; assay type: in vivo, NSG mice; settings: for reduction in [^18F]DK222 uptake in tumors vs vehicle: 24 hour before tracer, ex vivo
Protocol: To confirm the in vitro observations in vivo, NSG mice bearing LOX-IMVI tumors were treated with a single dose of 0.3 or 20 mg/kg of Atezolizumab, administered intravenously as a bolus, 24 hour before [^18F]DK222 injection (FIG. 5B, FIG. 5C and FIG. 5D). […] Importantly, there was a modest reduction in signal intensity when a low 0.3 mg/kg dose of Atezolizumab was used.
The aim of this experiment was to evaluate the potential of [^18F]DK222 to detect the heterogeneity in binding of different mAbs, thus proving in principle that it can be used to guide the choice between the multiple mAbs available for treatment. […] Separate groups of animals were injected with a single 1 mg/kg dose of (only) one of these mAbs, and after either 24 or 96 hours, each group was injected with [^18F]DK222, imaged, or sacrificed and the [^18F]DK222 signal was quantified (FIG. 6A). The difference in lower [^18F]DK222 signal, at 24 hours between any PD-L1 mAb vs Nivolumab constitutes the saturation binding of the PD-L1 mAb. On the other hand, the higher [^18F]DK222 signal at 96 hours versus that at 24 hours represents loss of the mAb from its binding site, making more PD-L1 accessible to [^18F]DK222. The experiment was repeated in two different tumor models: LOXIMVI and MDAMB231.
1.3.17 aPD-L1 mAb dosing studies. To determine the effect of antibody dose on accessible PD-L1 levels in the tumor, LOX-IMVI tumor-bearing mice were treated with a single intravenous bolus dose of Atezolizumab (0.3 or 20 mg/Kg) and 24 hours later mice were used for imaging (n=3-4) and biodistribution (n=6-8) studies.
Anti PD-1 antibody Nivolumab (1 mg/kg) and saline were used as controls. Mice treated for 24 h with therapeutic mAbs, or saline as a control, were injected with 200 μCi of [^18F]DK222 in 200 μL of saline intravenously, and PET images were acquired 1 hour after the injection of the radiotracer. Due to the many number of groups and mice involved, saline and Nivolumab-treated controls were included in every experiment, and data from multiple experiments were pooled. Study was repeated in MDAMB231 tumor-bearing mice with only biodistribution measurements.

[1] = circulating half-life; cited from earlier work
PD-L1 = PD-L1 (Homo sapiens, UniProt Q9NZQ7); settings: cited from earlier work
[2] = system: PD-L1 levels in melanoma cells; experiment: effect of IFNγ treatment on PD-L1 levels by flow cytometry; assay type: cell-based, human
Protocol: First, the effect of adaptive immune response on the PD-L1 expression in melanoma cells was investigated by assessing changes in PD-L1 levels induced by IFNγ treatment. LOX-IMVI, A375, and MeWO melanoma cells treated with IFNγ were analyzed for changes in PD-L1 levels.
1.3.8 Detection of PD-L1 expression by flow cytometry. Cells were evaluated for PD-L1 surface expression by direct staining of 2×10^5 cells in 100 μL PBS with Cy5-Atezolizumab, for 30 min at 4° C. Cy5-Atezolizumab was prepared as described previously. Kumar et al., 2019. Cells were then washed and analyzed for mean fluorescence intensity (MFI) by flow cytometry. Adherent cells were detached using enzyme-free cell dissociation buffer (Thermo Fisher Scientific, Waltham, Mass.). 1.3.9 In vitro binding assays with [^18F]DK222. In vitro binding of [^18F]DK222 to hPD-L1 MDAMB231, MeWo, A375, Sum149, and CHO cells was determined by incubating 1×10^6 cells with approximately […] of [^18F]DK222 in the presence, or absence, of 1 μM of DK222 or 60 nM mAbs for 30 min at 4° C. After incubation, cells were washed three times with ice cold PBS containing 0.1% Tween20 and counted on an automated gamma counter (1282 Compugamma CS, Pharmacia/LKBNuclear, Inc., Gaithersburg, Md.). […] All cell radioactivity uptake studies were performed in quadruplicate for each cell line and repeated three times.

A375 melanoma xenografts = experiment: aPD-1 mAb dosing study, [^18F]DK222 uptake in A375 tumors; assay type: in vivo; settings: huPBMC mice, single dose aPD-1 mAb 12 mg/kg, one week
Protocol: A humanized mouse model was used to quantify the differences in tumor PD-L1 levels as a measure of adaptive immune response to treatment with different aPD-1 mAbs. NSG mice humanized with PBMCs (huPBMC) bearing A375 melanoma xenografts were treated with a single dose of aPD-1 mAbs (12 mg/kg). Following one week of treatment, tumor PD-L1 levels were measured by [^18F]DK222-PET and by ex vivo counting 24 hours later (FIG. 4A). As controls, tumor-bearing huPBMC mice treated with saline and NSG mice treated with Pembrolizumab and Nivolumab were included.
1.3.14 aPD-1 mAb dosing studies. huPBMC mice acquired from JAX labs were implanted subcutaneously with 2×10^6 A375 cells in the rostral end. Seven days after cell inoculation (average tumor volume=80±15 mm^3), mice were randomized and treated with a single 12 mg/kg dose of Nivolumab or Pembrolizumab injected intravenously (n=9/group). huPBMC mice treated with saline (n=4-5/group). or NSG mice treated with 12 mg/kg dose of Nivolumab or Pembrolizumab were used as controls. Seven days following treatment, [^18F]DK222 PET scans were acquired on at least 3-5 mice per group. […]
1.3.15 Flow cytometry analysis. […] Cells were counted and 1×10^6 cells were resuspended in 100 μL Live/Dead aqua solution (ThermoFisher #L34965, 2 μL reconstituted with 2 mL PBS) in a 96 well plate. […]

Sequence of PD-L1 (Q9NZQ7 19-290): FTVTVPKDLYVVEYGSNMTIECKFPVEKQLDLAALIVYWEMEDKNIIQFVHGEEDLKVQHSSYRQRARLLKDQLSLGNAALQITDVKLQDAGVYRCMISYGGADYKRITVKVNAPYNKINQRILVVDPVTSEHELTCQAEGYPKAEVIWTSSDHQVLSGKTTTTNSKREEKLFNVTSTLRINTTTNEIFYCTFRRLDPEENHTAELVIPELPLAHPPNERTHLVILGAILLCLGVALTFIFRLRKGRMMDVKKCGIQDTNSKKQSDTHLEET
Sequence of PD-L1 binding to PD-1 (Q9NZQ7 19-238 limits assumed): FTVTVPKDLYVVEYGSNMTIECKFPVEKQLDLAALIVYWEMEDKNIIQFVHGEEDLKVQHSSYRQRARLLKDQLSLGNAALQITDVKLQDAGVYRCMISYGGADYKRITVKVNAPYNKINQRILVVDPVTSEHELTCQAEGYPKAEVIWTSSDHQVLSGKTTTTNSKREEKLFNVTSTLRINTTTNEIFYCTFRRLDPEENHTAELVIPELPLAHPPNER

Molecule: CCCC[C@H]1C(=O)N(C)[C@@H](CCCC)C(=O)N[C@@H](CCCCNC(=S)Nc2ccc(CN3CCN(CC(=O)O)CCN(CC(=O)O)CC3)cc2)C(=O)N[C@H](C(=O)NCC(N)=O)CSCC(=O)N[C@@H](Cc2ccc(O)cc2)C(=O)N(C)[C@@H](C)C(=O)N[C@@H](CC(N)=O)C(=O)N2CCC[C@H]2C(=O)N[C@@H](Cc2cnc[nH]2)C(=O)N[C@@H](CCC(=O)O)C(=O)N2C[C@H](O)C[C@H]2C(=O)N[C@@H](Cc2c[nH]c3ccccc23)C(=O)N[C@@H](CO)C(=O)N[C@@H](Cc2cn(CC(=O)O)c3ccccc23)C(=O)N1C [DK222] ({CH2CO}-Y[NMeA]NPHE[Hyp]WS[Trp(1-CH2COOH)][NMeNle][NMeNle]K(X1)CG-NH2; thioether N-14)
pIC50 (PD-L1 binding to PD-1): 7.55
inhibit PD1:PD-L1 interaction (PD-L1 binding to PD-1; protein-based assay): at nanomolar concentrations

PET image contrast (hPD-L1/CHO xenografts): poor image contrast
Molecule: CCCC[C@H]1C(=O)N(C)[C@@H](CCCC)C(=O)N[C@@H](CCCCNC(=O)c2ccc([18F])nc2)C(=O)N[C@H](C(=O)NCC(N)=O)CSCC(=O)N[C@@H](Cc2ccc(O)cc2)C(=O)N(C)[C@@H](C)C(=O)N[C@@H](CC(N)=O)C(=O)N2CCC[C@H]2C(=O)N[C@@H](Cc2cnc[nH]2)C(=O)N[C@@H](CCC(=O)O)C(=O)N2C[C@H](O)C[C@H]2C(=O)N[C@@H](Cc2c[nH]c3ccccc23)C(=O)N[C@@H](CO)C(=O)N[C@@H](Cc2cn(CC(=O)O)c3ccccc23)C(=O)N1C [[^18F]DK221-Py]

Molecule: Atezolizumab: aPD-L1 mAb, isotype IgG1κ
reduction in [^18F]DK222 uptake in tumors vs vehicle (LOX-IMVI tumors; 0.3 mg/kg single i.v. dose): 32%
reduction in [^18F]DK222 uptake in tumors vs vehicle (LOX-IMVI tumors; 20 mg/kg single i.v. dose): 89%
t1/2 [1]: 27 days
pKd (PD-L1): 9.40

Molecule: Avelumab: aPD-L1 mAb, IgG1λ
t1/2 [1]: 6.1 days

Molecule: Durvalumab: aPD-L1 mAb
accessible PD-L1 levels reduced (LOX-IMVI tumors; 1 mg/kg mAb, LOX-IMVI tumors, 24 h and 96 h): ≥ 70%
t1/2 [1]: 18 days
pKd (PD-L1): 10.66

Molecule: IFNγ: cytokine used to treat melanoma cells to induce PD-L1
increase in PD-L1 levels ([2]; A375 cells): four-fold
increase in PD-L1 levels ([2]; LOX-IMVI cells): two
change in PD-L1 levels ([2]; MeWo cells): No differences

Molecule: Nivolumab: aPD-1 mAb [reference compound]
mean LOX-IMVI tumor [^18F]DK222 uptake (LOX-IMVI tumors; 1 mg/kg mAb, 24 hours): approximately 20 % ID/g
increase in median [^18F]DK222 uptake compared to NSG mice (A375 melanoma xenografts): 148%

Molecule: Pembrolizumab: aPD-1 mAb [reference compound]
increase in median [^18F]DK222 uptake compared to NSG mice (A375 melanoma xenografts): 85%
